Assay results: US10399965B2 (INNOVATIVE PHARMACOLOGY RESEARCH OOO (IPHAR), priority 2016, dated 2019)

Key:
[1] = target: T1, Recombinant human tyrosyl-DNA-phosphodiesterase 1 (Tdp1) (Homo sapiens, UniProt Q9NUW8); test: Tdp1 inhibition, removal of BHQ1 quencher from 3'-end of FAM-labelled oligonucleotide (fluorescence); assay type: biochemical; settings: 1.3 nM Tdp1, 50 nM oligonucleotide, pH 8.0; read-out: IC50 (concentration of an inhibitor that reduces an enzyme's activity by half) towards Tdp1
T1 construct: made in house; host or cells: Escherichia coli
From the text: Recombinant human tyrosyl-DNA-phosphodiesterase 1 (EC number 3.1.4.) was expressed in an Escherichia coli system (plasmid pET 16B-Tdp1 provided by Dr. K. W. Caldecott, Sussex University, UK) and isolated as described in [2, 32]. The reaction of removing Black Hole Quencher 1 (BHQ1) from 3′-end of an oligonucleotide, catalyzed by Tdp1, is used as the test system for determining the inhibitory properties of the test compounds. At the 5′-end of an oligonucleotide there is (5,6)-FAM, a fluorophore whose fluorescence intensity increases after removing the quencher. POLARstar OPTIMA fluorimeter (BMG LABTECH) was used to measure fluorescence.
The reaction mixtures (volume 200 μl) contained the buffer (50 mM Tris-HCl, pH 8.0; 50 mM NaCl; 7 mM mercaptoethanol), 50 nM oligonucleotide and different concentrations of the inhibitor. The reaction was initiated by adding Tdp1 to a final concentration of 1.3 nM. The measurements were performed in linear range of dependence of reaction rate to time (up to 8 minutes) each 55 seconds. The action of the disclosed compounds was assessed by IC50 value (concentration of an inhibitor that reduces an enzyme's activity by half). IC50 value was calculated using MARS Data Analisys 2.0 software (BMG LABTECH).
A typical curve of relation of inhibitor concentration to the rate of reaction, catalyzed by Tdp1, is presented at FIG. 2.

[2] = Acute toxicity in mice, single oral administration; settings: CD-1, mouse, in vivo, oral; per os, male mice, single dose
Procedure: (§1) Assessment of acute toxicity of the disclosed compound was performed using outbred male CD-1 mice with SPF status. The test compound was administered in 62.5 mg/kg, 125 mg/kg, 250 mg/kg, 500 mg/kg, 1000 mg/kg, 2000 mg/kg and 5000 mg/kg doses (5 animals per group) in 0.5 ml volume once orally as a suspension in 0.5% aqueous solution of carboxymethyl cellulose.

[3] = tested on: outbred male CD-1 mice; test: Acute toxicity in mice, single oral administration; settings: male, CD-1, mouse, in vivo
Procedure: as §1

T1 sequence (Q9NUW8 whole entry): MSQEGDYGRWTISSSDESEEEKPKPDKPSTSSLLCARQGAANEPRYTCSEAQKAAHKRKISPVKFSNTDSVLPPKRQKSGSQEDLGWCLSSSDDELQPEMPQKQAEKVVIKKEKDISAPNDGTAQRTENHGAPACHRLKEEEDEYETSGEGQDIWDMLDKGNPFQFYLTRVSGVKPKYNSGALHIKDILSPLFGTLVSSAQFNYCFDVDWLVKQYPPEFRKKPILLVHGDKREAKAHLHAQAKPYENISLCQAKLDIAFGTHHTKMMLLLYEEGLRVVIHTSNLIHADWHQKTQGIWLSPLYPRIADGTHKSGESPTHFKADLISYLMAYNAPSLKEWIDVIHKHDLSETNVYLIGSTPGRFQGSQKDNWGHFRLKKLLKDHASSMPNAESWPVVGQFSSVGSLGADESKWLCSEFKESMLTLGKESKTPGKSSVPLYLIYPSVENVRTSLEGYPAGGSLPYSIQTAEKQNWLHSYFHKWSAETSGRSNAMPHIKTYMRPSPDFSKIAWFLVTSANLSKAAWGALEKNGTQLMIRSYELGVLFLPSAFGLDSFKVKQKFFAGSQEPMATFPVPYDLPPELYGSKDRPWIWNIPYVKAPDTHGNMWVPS

In the case of `CC(=O)C1=C(O)C=C2Oc3c(-c4csc(N/N=C/c5ccc(Br)cc5)n4)c(O)c(C)c(O)c3C2(C)C1=O` (stereo not drawn) [Compound I, 2-acetyl-6-(2-(2-(4-bromobenzylidene)hydrazinyl)thiazole-4-yl)-3,7,9-trihydroxy-8,9b-dimethyldibenzo[b,d] furan-1(9bh)-one], the IC50 [1] is reported as 26 ± 11 nM, the LD50 [2] is reported as greater than 5000 mg/kg and the maximal tolerated dose [3] is reported as “no less than 5000 mg/kg”.
